Measurements reported in PMC5829162, “Rational Design, Synthesis and Biological Evaluation of Pyrimidine-4,6-diamine derivatives as Type-II inhibitors of FLT3 Selective Against c-KIT” (Scientific Reports, 2018).

Assays:
Molm14 par = test: Cell proliferation (CellTiter-Glo, 48 h), Molm14 par; assay type: cell-based; conditions: Homo sapiens, MOLM-14
Source text: (§1) Stable BaF3 populations expressing activated FLT3 were generated by retroviral spinfection with the appropriate mutated plasmid followed by selection and growth factor withdrawal as previously described. The BaF3 cell line was originally obtained from the laboratory of Charles Sawyers and has not been authenticated. MV411 and Molm14 cells were obtained from the laboratory of Scott Kogan and authenticated by Promega STR analysis in June 2013. All cell lines were mycoplasma-free. Cells were incubated with compounds for 48 hours and proliferation was assessed using CellTiter-Glo (Promega; Madison, WI) according to the manufacturer’s recommendation on a SpectraMax M3 microplate reader using SpectraMax Software (Molecular Devices; Sunnyvale, CA). All cell viability data shown is reflective of experiments performed a minimum of three times. […]
(§2) S13. Cell Cultures: Stable BaF3 populations expressing activated FLT3 were generated by retroviral spinfection with the appropriate mutated plasmid followed by selection and growth factor withdrawal as previously described .4 The BaF3 cell line was originally obtained from the laboratory of Charles Sawyers and has not been authenticated. MV411 and Molm14 cells were obtained from the laboratory of Scott Kogan and authenticated by Promega STR analysis in June
(§3) 2013. All cell lines were mycoplasma -free. Cells were incubated with compounds for 48 hours and proliferation was assessed using CellTiter -Glo (Promega; Madison, WI) according to the manufacturer’s recommendation on a SpectraMax M3 microplate reader using SpectraMax Software (Molecular Devices; Sunnyvale, CA). All cell viability data shown is reflective of experiments performed a minimum of three times.

MV4–11 AML cells = test: Cell proliferation (CellTiter-Glo, 48 h), MV4-11; assay type: cell-based; conditions: Homo sapiens; MV4–11, 48 hours
Source text: as §1, §2, §3

FLT3 kinase = target: T1, FLT3 kinase (Homo sapiens, UniProt P36888); test: Biochemical enzyme inhibition assay (microfluidics, Caliper EZ Reader II), FLT3; conditions: for IC50: in vitro kinase assay, 60 min pre-incubation, ATP 190 µM, three independent experiments, read-out: FLT3 IC50 (nM) ± SD; for LE: ligand efficiency for FLT3 inhibition
T1 construct: purchased Invitrogen
T1 sequence (P36888 27-993): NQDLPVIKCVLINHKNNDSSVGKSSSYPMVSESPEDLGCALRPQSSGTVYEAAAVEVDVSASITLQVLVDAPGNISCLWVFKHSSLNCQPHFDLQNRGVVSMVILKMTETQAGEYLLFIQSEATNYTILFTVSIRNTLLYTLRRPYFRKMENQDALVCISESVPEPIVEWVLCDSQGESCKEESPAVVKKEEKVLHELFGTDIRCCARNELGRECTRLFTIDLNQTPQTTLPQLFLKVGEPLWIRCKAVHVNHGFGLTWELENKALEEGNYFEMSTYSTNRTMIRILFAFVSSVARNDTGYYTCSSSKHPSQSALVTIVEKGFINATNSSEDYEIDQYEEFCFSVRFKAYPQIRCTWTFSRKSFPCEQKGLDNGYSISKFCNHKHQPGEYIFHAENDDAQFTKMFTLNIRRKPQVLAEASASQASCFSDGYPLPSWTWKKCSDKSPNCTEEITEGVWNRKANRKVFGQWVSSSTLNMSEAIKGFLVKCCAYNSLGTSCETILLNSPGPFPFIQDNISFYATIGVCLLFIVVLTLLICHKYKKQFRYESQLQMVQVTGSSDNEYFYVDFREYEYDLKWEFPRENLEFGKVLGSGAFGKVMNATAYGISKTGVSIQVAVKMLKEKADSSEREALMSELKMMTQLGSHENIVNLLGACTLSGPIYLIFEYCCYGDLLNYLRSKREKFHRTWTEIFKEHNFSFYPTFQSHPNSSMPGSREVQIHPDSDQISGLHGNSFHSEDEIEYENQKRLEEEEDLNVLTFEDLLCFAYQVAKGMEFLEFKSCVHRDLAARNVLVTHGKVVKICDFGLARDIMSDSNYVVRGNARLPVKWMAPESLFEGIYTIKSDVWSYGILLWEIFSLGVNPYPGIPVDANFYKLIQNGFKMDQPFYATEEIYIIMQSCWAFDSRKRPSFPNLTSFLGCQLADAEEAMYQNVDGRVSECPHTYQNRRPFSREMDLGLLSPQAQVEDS
Procedure: Kinase activity was measured in a microfluidics assay that monitors the separation of a phosphorylated product from substrate[31],[32]. […] After, 1 μL was transferred into a 384-well polypropylene assay plate (Greiner, Frickenhausen, Germany). The FLT3 enzyme (Invitrogen™, Grand Island, USA) was diluted in kinase buffer to a concentration of 2 nM and 5 µL of the enzyme mixture was transferred to the assay plate. The inhibitors/FLT3 enzyme were incubated for 60 minutes with minor shaking. […] For positive control, no inhibitor was added. For negative control, no enzyme was added. For running control, quizartinib was utilized. The plate was run until 10–20% conversion based on the positive control wells. The following separation conditions were utilized: upstream voltage −500V; downstream voltage, −1900V; chip pressure −0.8. Percent inhibition was measured for each well comparing starting peptide to phosphorylated product peaks relative to the baseline. Dose response curves, spanning the IC50 dose, were generated in GraphPad Prisim 6 and fit to an exponential one-phase decay line and IC50 values were obtained from the half-life value of the curve. IC50 values were generated in duplicate and error was calculated from the standard deviation between values.
S10. Biochemical Inhibition Assay:1,2 Kinase activity was measured in a microfluidics assay that monitors the separation of a phosphorylated product from substrate. The assay was run using a 12-sipper chip on a Caliper EZ Reader II (PerkinElmer®, Walthman, USA) with separation […]
Walthman, USA]). In 96-well polypropylene plates (Greiner, Frickenhausen, Germany) […]
After, 1 μL was transferred into a 384-well polypropylene assay plate (Greiner, Frickenhausen, Germany). The FLT3 enzyme (Invitrogen™, Grand Island, USA) was diluted in kinase buffer to a concentration of 2 nM and 5 µL of the enzyme mixture was transferred to the assay plate. The inhibitors/FLT3 enzyme were incubated for 60 minutes with minor shaking. A substrate mix was prepared containing ATP (Ambresco®, Solon, USA) and […]
USA) dissolved in kinase buffer, and 5 µL of the substrate mix was added to the assay plate.
For positive control, no inhibitor was added. For negative control, no enzyme was added. For running control, quizartinib was utilized. The plate was run until 10-20% conversion based on the positive control wells. The following separation conditions were utilized: upstream voltage -500V; downstream voltage, -1900V; chip pressure - 0.8. Percent inhibition was measured for each well comparing starting peptide to phosphorylated product peaks relative to the baseline. Dose response curves, spanning the IC50 dose, were generated in GraphPad Prisim 6 and fit to an exponential one-phase decay line and IC50 values were obtained from the half-life value of the curve. IC50 values were generated in duplicate and error was calculated from the standard deviation between values. […]

Ba/F3 FLT3-ITD = test: Cell proliferation (CellTiter-Glo, 48 h), Ba/F3 FLT3-ITD; assay type: cell-based
Source text: as §1, §2, §3

Molm14^D835Y = test: Cell proliferation (CellTiter-Glo, 48 h), Molm14 D835Y; assay type: cell-based; conditions: Homo sapiens, MOLM-14; Molm14^D835Y, 48 hours
Source text: as §1, §2, §3

Molm14^F691L = test: Cell proliferation (CellTiter-Glo, 48 h), Molm14 F691L; assay type: cell-based; conditions: Homo sapiens, MOLM-14; Molm14^F691L, 48 hours
Source text: as §1, §2, §3

FLT3-driven cell lines = test: Cell-based studies, FLT3-driven cell lines overall; conditions: result in words
Source text: as §1
S13. […]
2013. […] Cells were incubated with compounds for 48 hours and proliferation was assessed using CellTiter -Glo (Promega; Madison, WI) according to the manufacturer’s recommendation on a SpectraMax M3 microplate reader using SpectraMax Software (Molecular Devices; Sunnyvale, CA). […]

CNc1cc(Nc2ccc(CC(=O)Nc3cc(C(C)(C)C)nn3C)cc2)ncn1 [13b, 2-(4-(6-(Methylamino)pyrimidin-4-ylamino)phenyl)-N-(3-tert-butyl-1-methyl-1H-pyrazol-5-yl)acetamide]
GI50 (Molm14 par): 187 nM
GI50 (MV4–11 AML cells): 80.6 nM
IC50 (FLT3 kinase): 37.5 ± 13 nM
LE (FLT3 kinase): 0.35
melting point: 194 to 196 °C
GI50 (Ba/F3 FLT3-ITD): 158 nM
GI50 (Molm14^D835Y): 2230 nM
GI50 (Molm14^F691L): 1350 nM

Cn1nc(C(C)(C)C)cc1NC(=O)Cc1ccc(Nc2cc(NCCCN3CCCC3)ncn2)cc1 [13d, 2-(4-(6-(3-(Pyrrolidin-1-yl)propylamino)pyrimidin-4-ylamino)phenyl)-N-(3-tert-butyl-1-methyl-1H-pyrazol-5-yl)acetamide]
GI50 (MV4–11 AML cells): 2250 nM
IC50 (FLT3 kinase): 377 ± 20 nM
LE (FLT3 kinase): 0.24
inhibition of FLT3-driven cellular growth (FLT3-driven cell lines): failed to effectively inhibit FLT3-driven cellular growth

CNc1cc(Nc2ccc(CC(=O)Nc3cccc(C(F)(F)F)c3)cc2)ncn1 [13r, 2-(4-(6-(Methylamino)pyrimidin-4-ylamino)phenyl)-N-(3-(trifluoromethyl)phenyl) acetamide]
GI50 (Molm14 par): 187 nM
GI50 (MV4–11 AML cells): 80.6 nM
IC50 (FLT3 kinase): 411 ± 236 nM
LE (FLT3 kinase): 0.30
melting point: 216 to 218 °C
GI50 (Ba/F3 FLT3-ITD): 266 nM
GI50 (Molm14^D835Y): 2230 nM
GI50 (Molm14^F691L): 1350 nM

CNc1cc(Nc2ccc(CC(=O)Nc3ccc(S(C)(=O)=O)cc3)cc2)ncn1 [13v, 2-(4-(6-(methylamino)pyrimidin-4-ylamino)phenyl)-N-(4-(methylsulfonyl)phenyl) acetamide]
GI50 (Molm14 par): > 10000 nM
GI50 (MV4–11 AML cells): > 10000 nM
IC50 (FLT3 kinase): 2120 ± 401 nM
LE (FLT3 kinase): 0.27
melting point: 220 to 222 °C
GI50 (Ba/F3 FLT3-ITD): > 10000 nM
GI50 (Molm14^D835Y): > 10000 nM
GI50 (Molm14^F691L): > 10000 nM
